Measured values from PMC12409781 (RSC Advances, 2025).

Assays:
Experiment in all cases: Cell viability assay
Type in all cases: cell-based
[1] = test system: Panc-1; details: Homo sapiens, PANC-1, 72 h, read-out: IC50 Panc-1, 72 hours, CCK-8
[2] = test system: MIA PaCa-2; details: Homo sapiens, MIA PaCa-2, 72 h, read-out: IC50 MIA PaCa-2
[3] = test system: KPC; details: 72 h, read-out: IC50 KPC

In the case of `Nc1ccn([C@@H]2O[C@H](CO)[C@@H](O)C2(F)F)c(=O)n1` [Gemcitabine], the IC50 [1] is reported as 11.6 ± 0.56 µM, the IC50 [2] is reported as 7.83 ± 0.28 µM and the IC50 [3] is reported as 5.36 ± 0.25 µM.
